Source: US5981558A, “DC107 derivatives” (Kyowa Hakko Kogyo Co., Ltd., priority 1996, dated 1999)
≈ marks a conversion by molar mass, not a printed value. Like-named read-outs stand apart in the source and are kept apart here.

Key:
[1] = system: BS: Bacillus substilis No. 10707; test: Antimicrobial activity by the agar dilution method (MIC); type: cell-based
Experimental: (§1) Antimicrobial activity was determined by the agar dilution method using a culture medium (pH 7) prepared by dissolving 3 g of Bacto-Tryptone (manufactured by Difco, Co.), 3 g of meat extract, 1 g of yeast extract, 1 g of glucose, and 16 g of agar in 1 l of water.

[2] = system: Sarcoma 180 mouse solid tumor; test: Antitumor activity against Sarcoma 180 mouse solid tumor; type: in vivo, mouse (ddY); conditions: Sarcoma-180, iv, 168 h
Experimental: To a ddY mouse were intraperitoneally transplanted 5×10^6 sarcoma 180 cells. On the seventh day from the transplant, the cells were collected from the ascites, washed once with sterilized physiological saline, and then diluted with sterilized physiological saline to prepare a cell suspension having a concentration of 5×10^7 cells/mL. This suspension was transplanted in an amount of 0.01 mL to a subcutaneous part of the right axilla of each of male ddY mice each weighing 20±1 g.
A test compound was dissolved in physiological saline containing polyoxyethylene sorbitan monolaurate. At 24 hours after the tumor transplant, 0.2 mL of the solution was intravenously administered to the tail of each of a group of five mice.

HeLa S3 cells = test: HeLa S3 Cell Growth Inhibition Test; type: cell-based; conditions: Homo sapiens, HeLa S3, 72 h, 72 hours incubation, Neutral Red
Summary of the method: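 HeLa S3 cells seeded overnight in MEM with 10% FBS, then exposed to compound for 72 h at 37 °C. Viable cells stained with Neutral Red, dye extracted, absorbance read at 550 nm; IC50 derived against untreated cells.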

[3] = system: EH: Enterococcus hirae ATCC 10541; test: Antimicrobial activity by the agar dilution method (MIC); type: cell-based; conditions: pH 7
Experimental: as §1

[4] = system: KP: Klebisiella pneumoniae ATCC 10031; test: as above; type: cell-based
Experimental: as §1

[5] = system: SA: Staphylococcus aureus ATCC 6538P; test: as above; type: cell-based; conditions: ATCC6538P
Experimental: as §1

[6] = system: EC: Escherichia coli ATCC 26; test: as above; type: cell-based
Experimental: as §1

various bacteria = conditions: Japanese Published Unexamined Patent Application No. 112988/89; cited from earlier work
tumor = conditions: Japanese Published Unexamined Patent Application No. 112988/89; cited from earlier work
[7] = Bacillus substilis No. 10707, agar dilution, pH 7, read-out: minimum inhibitory concentration (MIC), BS
[8] = HeLa S3, read-out: IC50, HeLa S3 cell growth inhibition
[9] = Klebisiella pneumoniae ATCC 10031, agar dilution, pH 7, read-out: minimum inhibitory concentration (MIC), KP
[10] = Staphylococcus aureus ATCC 6538P, agar dilution, pH 7, read-out: minimum inhibitory concentration (MIC), SA
[11] = ATCC26, Escherichia coli ATCC 26, agar dilution, pH 7, read-out: minimum inhibitory concentration (MIC), EC
[12] = Bacillus, pH 7, read-out: minimum inhibitory concentration (MIC), BS
[13] = read-out: IC50, HeLa S3 cell growth inhibition, HeLa S3
[14] = pH 7, read-out: minimum inhibitory concentration (MIC), KP
[15] = Staphylococcus aureus, pH 7, read-out: minimum inhibitory concentration (MIC), SA
[16] = Escherichia coli, ATCC26, pH 7, read-out: minimum inhibitory concentration (MIC), EC

| Structure (SMILES) | MIC [1, 7] [mg/L] | IC50 (HeLa S3 cells; [8]) [µM] | minimum inhibitory concentration (MIC), EH [3] [mg/L] | MIC [4, 9] [mg/L] | MIC [5, 10] [mg/L] | MIC [6, 11] [mg/L] | MIC [1, 12] [mg/L] | IC50 (HeLa S3 cells; [13]) [µM] | MIC [4, 14] [mg/L] | MIC [5, 15] [mg/L] | MIC [6, 16] [mg/L] | further results |
| --- | --- | --- | --- | --- | --- | --- | --- | --- | --- | --- | --- | --- |
| COCCOCCOCC(=O)OCSC(=O)C(C)(O)C12CCC(C)=CC(O)C(=O)C=CC=Cc3csc(n3)C(C)N(C(=O)C1)[S+]2[O-] (centres unmarked) [Compound 35] | 0.39 (≈ 0.556 µM) | 0.022 | 0.39 (≈ 0.556 µM) | 0.39 (≈ 0.556 µM) | 0.39 (≈ 0.556 µM) | 13 (≈ 18.5 µM) |  |  |  |  |  | response vs control in vivo at 2 mg/kg ([2]; 2.0 mg/kg i.v. once, 24 hours after transplant, tumor volume on day 7, read-out: T/C (tumor volume ratio treated/control)): 44% |
| C/C1=C\C(O)C(=O)/C=C/C=C\c2csc(n2)C(C)N2C(=O)CC(C(C)(O)C(=O)SCOC(=O)CCc3ccc(O)cc3)(CC1)[S+]2[O-] (centres unmarked) [Compound 70] |  |  | 0.91 (≈ 1.32 µM) |  |  |  | 0.057 (≈ 0.0827 µM) | 0.0026 | 0.91 (≈ 1.32 µM) | 0.91 (≈ 1.32 µM) | 29 (≈ 42.1 µM) |  |
| COCOCc1oc(=O)oc1CSC(=O)C(C)(O)C12CC/C(C)=C/C(O)C(=O)/C=C/C=C\c3csc(n3)C(C)N(C(=O)C1)[S+]2[O-] (centres unmarked) [Compound 77] | 0.36 (≈ 0.527 µM) | 0.0077 | 0.18 (≈ 0.264 µM) | 0.36 (≈ 0.527 µM) | 0.36 (≈ 0.527 µM) | 11 (≈ 16.1 µM) |  |  |  |  |  | response vs control in vivo at 8 mg/kg ([2]; 8.0 mg/kg i.v. once, 24 hours after transplant, tumor volume on day 7, read-out: T/C (tumor volume ratio treated/control)): 36% |
| C/C1=C\C(OC2CCCCO2)C(=O)/C=C/C=C\c2csc(n2)C(C)N2C(=O)CC(C(C)(O)C(=O)SCc3oc(=O)oc3COC3C[C@@H](O)[C@H](O)[C@@H](CO)O3)(CC1)[S+]2[O-] (some centres unmarked) [Compound 83] |  |  | 0.59 (≈ 0.679 µM) |  |  |  | 0.037 (≈ 0.0426 µM) | 0.011 | 4.7 (≈ 5.41 µM) | 0.32 (≈ 0.368 µM) | 4.7 (≈ 5.41 µM) |  |
| C/C1=C\C(O)C(=O)/C=C/C=C\c2csc(n2)C(C)N2C(=O)CC(C(C)(O)C(=O)SCc3oc(=O)oc3CO)(CC1)[S+]2[O-] (centres unmarked) [Compound 86] |  |  | 0.16 (≈ 0.25 µM) |  |  |  | 0.16 (≈ 0.25 µM) | 0.61 | 0.16 (≈ 0.25 µM) | 0.33 (≈ 0.517 µM) | 10 (≈ 15.7 µM) |  |
| COCCOCC(=O)OCc1oc(=O)oc1CSC(=O)C(C)(O)C12CC/C(C)=C/C(OC3CCCCO3)C(=O)/C=C/C=C\c3csc(n3)C(C)N(C(=O)C1)[S+]2[O-] (centres unmarked) [Compound 100] | 0.041 (≈ 0.0489 µM) | 0.018 | 0.33 (≈ 0.393 µM) | 0.65 (≈ 0.775 µM) | 0.081 (≈ 0.0965 µM) | 2.6 (≈ 3.1 µM) |  |  |  |  |  | response vs control in vivo at 16 mg/kg ([2]; 16 mg/kg i.v. once, 24 hours after transplant, tumor volume on day 7, read-out: T/C (tumor volume ratio treated/control)): 30% |
| COC(=O)[C@H](CCC(=O)OCSC(=O)C(C)(O)C12CC/C(C)=C/C(O)C(=O)/C=C/C=C\c3csc(n3)C(C)N(C(=O)C1)[S+]2[O-])NC(=O)C1CCC(=O)N1 (some centres unmarked) [Compound 143] |  |  | 0.29 (≈ 0.365 µM) |  |  |  | 0.29 (≈ 0.365 µM) |  | 0.59 (≈ 0.742 µM) | 0.29 (≈ 0.365 µM) | 19 (≈ 23.9 µM) | response vs control in vivo at 8 mg/kg ([2]; read-out: T/C (tumor volume ratio treated/control)): 27% |
| CC1=CC(O)C(=O)C=CC=Cc2csc(n2)C(C)NC(=O)CC2(CC1)[S+]([O-])SC(=O)C2(C)O (centres unmarked) [DC107] |  |  |  |  |  |  |  |  |  |  |  | antimicrobial activity (various bacteria): antimicrobial activity against various bacteria; antitumor activity (tumor): antitumor activity |
